“And” between values parts separate entries of the source, which are not always exact repeats. Equal values may be shown once. Read-outs that look alike come from different tables or passages of the source.
Legend:
[1] = target: T1, human NCX 1.1 current (I NCX) (Homo sapiens, UniProt P32418); assay: NCX current (I NCX), whole‐cell patch‐clamp in hiPSC‐derived cardiomyocytes; format: cell-based; settings: hiPSC‐CMs, 35–37°C
T1 construct: Cor.4U cells express cardiac proteins including NCX1; host or cells: Cor.4U hiPSC-derived cardiomyocytes
Source text: Human‐induced pluripotent stem cell (hiPSC)‐derived CMs (Cor.4U CMs; RRID:CVCL_Y550) were thawed, seeded onto gelatine‐coated coverslips, and maintained, as described in the manufacturer's protocol.
Manual patch‐clamp recordings of membrane currents (I NCX, L‐type Ca^2+ channel current [I CaL], human cardiac sodium 1.5 current [I Na], and I hERG) were undertaken using either an Axopatch 200B or Axopatch ID amplifier (Molecular Devices, USA), using the whole‐cell configuration. […]
The measurement of current in the K^+‐free bath solution using a ramp voltage protocol at 20‐s intervals represented the first control, after which values were measured in the presence of one or more increasing concentrations of ORM‐11372 and finally upon exposure to 10‐mM NiCl2. […] Therefore, to enhance the inward current and enable a solution with a certain concentration of ORM‐11372 to be measured, the concentrations of the K^+‐free and pipette solutions were altered. […] The outward human I NCX inhibition current was measured at the following ORM‐11372 concentrations: 3 (n = 4), 10 (n = 6), 30 (n = 4), and 100 (n = 3) nM. […] The outward I NCX current in rat CMs was measured at concentrations ranging from 1 to 1,000 nM (n = 5). The inward I NCX current in rats was measured in additional experiments under changed conditions, to enhance the inward I NCX current. […]

[2] = target: T2, L‐type Ca^2+ channel current (I CaL) (Homo sapiens, UniProt Q13936); assay: L‐type calcium current (I CaL), patch‐clamp in hiPSC‐derived cardiomyocytes; format: cell-based; settings: hiPSC‐CMs, 0 mV, read-out: inhibition of inward I CaL
T2 construct: I CaL was recorded from hiPSC‐derived CMs; host or cells: Cor.4U hiPSC-derived cardiomyocytes
T2 sequence (Q13936 whole entry): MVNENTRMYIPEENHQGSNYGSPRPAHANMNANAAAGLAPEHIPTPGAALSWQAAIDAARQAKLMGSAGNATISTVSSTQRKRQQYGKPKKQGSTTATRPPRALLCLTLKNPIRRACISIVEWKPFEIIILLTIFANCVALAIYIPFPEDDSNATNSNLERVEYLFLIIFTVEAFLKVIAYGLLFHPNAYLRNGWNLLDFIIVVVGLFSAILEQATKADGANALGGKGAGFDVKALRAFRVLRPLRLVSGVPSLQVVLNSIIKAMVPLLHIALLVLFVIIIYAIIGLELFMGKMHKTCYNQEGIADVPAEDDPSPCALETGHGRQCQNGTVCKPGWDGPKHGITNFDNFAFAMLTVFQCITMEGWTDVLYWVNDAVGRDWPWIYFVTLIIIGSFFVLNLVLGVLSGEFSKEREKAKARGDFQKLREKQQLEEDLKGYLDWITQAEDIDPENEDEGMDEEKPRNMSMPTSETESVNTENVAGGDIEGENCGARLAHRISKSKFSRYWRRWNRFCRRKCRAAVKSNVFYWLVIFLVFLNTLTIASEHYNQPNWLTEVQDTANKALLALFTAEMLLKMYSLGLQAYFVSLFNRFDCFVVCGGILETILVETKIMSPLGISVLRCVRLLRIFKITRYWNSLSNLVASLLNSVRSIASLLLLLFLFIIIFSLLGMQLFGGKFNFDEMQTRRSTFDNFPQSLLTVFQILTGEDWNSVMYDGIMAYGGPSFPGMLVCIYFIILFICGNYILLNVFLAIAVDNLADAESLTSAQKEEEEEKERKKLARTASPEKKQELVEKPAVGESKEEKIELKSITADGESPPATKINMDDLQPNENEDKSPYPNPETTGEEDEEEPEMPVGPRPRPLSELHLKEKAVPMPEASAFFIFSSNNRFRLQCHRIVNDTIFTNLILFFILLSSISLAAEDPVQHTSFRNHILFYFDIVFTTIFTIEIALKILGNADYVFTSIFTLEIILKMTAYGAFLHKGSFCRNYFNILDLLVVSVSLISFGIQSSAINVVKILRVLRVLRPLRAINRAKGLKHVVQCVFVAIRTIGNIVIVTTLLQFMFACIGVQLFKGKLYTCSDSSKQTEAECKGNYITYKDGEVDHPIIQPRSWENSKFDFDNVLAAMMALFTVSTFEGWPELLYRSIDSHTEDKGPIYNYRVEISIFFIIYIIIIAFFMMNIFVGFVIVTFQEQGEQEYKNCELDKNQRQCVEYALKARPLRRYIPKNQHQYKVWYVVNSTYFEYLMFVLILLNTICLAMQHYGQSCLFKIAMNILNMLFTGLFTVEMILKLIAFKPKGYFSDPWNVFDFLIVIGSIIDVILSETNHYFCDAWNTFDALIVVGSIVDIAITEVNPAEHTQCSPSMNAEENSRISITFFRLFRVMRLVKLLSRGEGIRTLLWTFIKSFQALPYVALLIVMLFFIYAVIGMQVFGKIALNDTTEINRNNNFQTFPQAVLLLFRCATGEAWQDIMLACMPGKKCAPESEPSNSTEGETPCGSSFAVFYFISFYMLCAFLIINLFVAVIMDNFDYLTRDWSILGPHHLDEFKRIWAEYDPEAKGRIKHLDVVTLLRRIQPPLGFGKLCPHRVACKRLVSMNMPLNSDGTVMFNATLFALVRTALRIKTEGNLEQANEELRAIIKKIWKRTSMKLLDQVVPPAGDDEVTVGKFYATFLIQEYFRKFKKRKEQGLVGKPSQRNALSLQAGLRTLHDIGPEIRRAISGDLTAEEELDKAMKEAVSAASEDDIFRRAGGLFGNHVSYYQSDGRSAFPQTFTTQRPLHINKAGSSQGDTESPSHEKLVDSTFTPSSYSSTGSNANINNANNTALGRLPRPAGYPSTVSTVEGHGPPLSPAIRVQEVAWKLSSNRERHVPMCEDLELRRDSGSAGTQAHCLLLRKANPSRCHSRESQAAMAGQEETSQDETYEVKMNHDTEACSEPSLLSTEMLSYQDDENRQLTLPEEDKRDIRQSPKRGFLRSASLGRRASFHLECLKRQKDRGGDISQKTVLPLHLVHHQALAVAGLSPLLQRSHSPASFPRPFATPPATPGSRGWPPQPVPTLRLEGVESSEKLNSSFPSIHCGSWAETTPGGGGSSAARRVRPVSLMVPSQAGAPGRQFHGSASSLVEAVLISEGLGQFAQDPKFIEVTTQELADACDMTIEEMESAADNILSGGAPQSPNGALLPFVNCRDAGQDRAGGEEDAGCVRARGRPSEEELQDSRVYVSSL
T2 sequence (Q08289 whole entry partner): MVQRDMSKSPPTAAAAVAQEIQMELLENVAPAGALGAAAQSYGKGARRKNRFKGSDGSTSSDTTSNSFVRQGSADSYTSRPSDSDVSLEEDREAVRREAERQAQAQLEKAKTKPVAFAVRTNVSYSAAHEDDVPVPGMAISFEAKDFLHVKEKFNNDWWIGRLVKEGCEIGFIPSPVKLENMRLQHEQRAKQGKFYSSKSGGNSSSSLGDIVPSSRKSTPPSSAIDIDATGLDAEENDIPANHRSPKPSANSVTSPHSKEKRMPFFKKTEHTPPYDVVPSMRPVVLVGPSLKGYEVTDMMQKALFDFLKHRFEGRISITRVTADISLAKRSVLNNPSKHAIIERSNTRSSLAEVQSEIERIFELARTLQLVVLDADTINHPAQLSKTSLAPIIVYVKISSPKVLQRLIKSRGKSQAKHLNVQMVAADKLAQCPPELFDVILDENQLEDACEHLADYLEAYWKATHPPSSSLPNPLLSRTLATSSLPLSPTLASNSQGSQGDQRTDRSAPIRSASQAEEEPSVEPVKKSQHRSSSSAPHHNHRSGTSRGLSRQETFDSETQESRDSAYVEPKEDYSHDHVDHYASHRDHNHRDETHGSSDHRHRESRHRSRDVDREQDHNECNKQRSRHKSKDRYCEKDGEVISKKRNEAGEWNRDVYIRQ
T2 sequence (P54289 25-946 partner limits assumed): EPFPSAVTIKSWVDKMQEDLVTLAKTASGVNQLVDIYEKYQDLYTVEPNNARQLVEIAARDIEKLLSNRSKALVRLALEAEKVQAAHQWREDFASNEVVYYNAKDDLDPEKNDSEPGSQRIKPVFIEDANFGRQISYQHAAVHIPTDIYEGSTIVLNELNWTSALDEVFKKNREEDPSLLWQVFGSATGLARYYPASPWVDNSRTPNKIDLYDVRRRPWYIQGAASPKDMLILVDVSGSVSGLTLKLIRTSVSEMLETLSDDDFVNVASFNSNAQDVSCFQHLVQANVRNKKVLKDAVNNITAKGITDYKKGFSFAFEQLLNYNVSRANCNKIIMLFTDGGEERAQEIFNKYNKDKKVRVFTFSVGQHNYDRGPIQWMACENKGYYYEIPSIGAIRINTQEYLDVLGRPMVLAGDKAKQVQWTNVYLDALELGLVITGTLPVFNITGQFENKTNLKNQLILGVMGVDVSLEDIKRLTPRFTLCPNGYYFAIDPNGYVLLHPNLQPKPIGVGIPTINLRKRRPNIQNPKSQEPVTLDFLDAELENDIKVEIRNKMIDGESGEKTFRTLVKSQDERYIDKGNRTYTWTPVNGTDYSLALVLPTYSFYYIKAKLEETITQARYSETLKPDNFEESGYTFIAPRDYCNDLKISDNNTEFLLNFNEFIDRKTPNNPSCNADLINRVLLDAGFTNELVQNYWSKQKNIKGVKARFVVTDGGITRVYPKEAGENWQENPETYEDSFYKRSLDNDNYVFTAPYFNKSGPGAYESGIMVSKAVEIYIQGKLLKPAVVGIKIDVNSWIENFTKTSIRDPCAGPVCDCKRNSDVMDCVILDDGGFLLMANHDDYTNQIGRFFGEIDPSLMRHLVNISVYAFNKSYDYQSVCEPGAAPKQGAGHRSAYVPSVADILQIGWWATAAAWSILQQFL
T2 sequence (P54289 947-1103 partner limits assumed): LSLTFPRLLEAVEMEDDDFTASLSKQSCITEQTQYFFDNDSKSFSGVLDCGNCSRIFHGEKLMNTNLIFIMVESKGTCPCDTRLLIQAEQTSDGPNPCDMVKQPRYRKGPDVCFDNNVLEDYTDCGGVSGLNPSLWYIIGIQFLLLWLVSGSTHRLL
Source text: Manual patch‐clamp recordings of membrane currents (I NCX, L‐type Ca^2+ channel current [I CaL], human cardiac sodium 1.5 current [I Na], and I hERG) were undertaken using either an Axopatch 200B or Axopatch ID amplifier (Molecular Devices, USA), using the whole‐cell configuration. Cells were at least initially (except when recording I Na) perfused with an extracellular solution consisting of (in mM) 143 NaCl, 4 KCl, 1.8 CaCl2, 1.2 MgCl2, 5 glucose, and 10 HEPES (pH 7.4 with NaOH; osmolarity adjusted to 301 ± 3 mOsm). A slightly modified version was used for the rat ventricular CMs (in mM: 144 NaCl, 0.4 NaH2PO4, 4.0 KCl, 1.8 CaCl2, 0.53 MgSO4, 5.5 glucose, and 5.0 HEPES). Patch pipettes were pulled with a P‐2000 or P‐97 micropipette puller (Sutter Instruments, USA) from borosilicate glass capillaries and had resistances of between 2 and 4 MΩ when filled with any of the pipette solutions (see below). The data were filtered at 1 or 2 kHz and digitized at 10 kHz with acquisition and analysis performed by use of pClamp software (Versions 8–10; Molecular Devices; RRID:SCR_011323).
I CaL was recorded from hiPSC‐derived CMs (at room temperature, n = 2) and rat ventricular myocytes at 1 μM (n = 3; 5 cells) and at 10 μM (n = 4; 6 cells) in an extracellular solution supplemented with 4‐aminopyridine (3 mM) at 37 °C. […]

Compound: Nc1cccc(-c2ccc(CNc3ccc(F)cc3)o2)c1 [ORM‐11372]
- IC50 ([1]; Ni^2+‐sensitive current at +60 mV, read-out: IC50 outward (reverse) I NCX): 4.8 nM and 5 nM
- IC50 ([1]; Ni^2+‐sensitive current at −100 mV, read-out: IC50 inward (forward) I NCX): 5.6 nM and 6 nM
- inhibition at 1 µM [2]: 14.1%
